Data published in US10696707B2, “Polyene macrolide derivative” (Shionogi & Co., Ltd., priority 2014, dated 2020).

Each molecule was assayed on red blood cells (5% RBC suspension) (assay: Test Example 2-1: in vitro hemolytic activity test (upper limit 50, 80, 100 or 200 μmol/L)). Details: Erythrocyte, 1 h; hemolysis method 50 (upper concentration 50 μmol/L); 5% RBC suspension, 37° C., one hour; read-out: hemolysis IC50.
Format: cell-based
Description: Nephrotoxic potentials of the compounds of the present invention except the compounds whose X is —N(R^F)—CO—X^1 and X^1 is the group represented by formula (III) and T is —N(R^a5)— were investigated by in vitro hemolytic activity test under the condition, in that, the upper limit was 50 μmol/L, 80 μmol/L, 100 μmol/L, or 200 μmol/L as the required concentration to 50% of hemolysis (IC50).
Defibrinated sterile blood was centrifuged at 700×g for 3 minutes and, and the supernatant was removed for 100% of red blood cells. After the cleaning with physiological saline, the washed blood cells was suspended in the medium (Earle's balanced salt sodium, bicarbonate, 0.1 g/L L-glutamine without phenol red), and was diluted by 5% (5% RBC suspension).
The washed blood was diluted by 5% in water for injection (solution of complete hemolysis), and was used as the indication of optical density for complete hemolysis.
The compounds of the present invention solution in DMSO (several and doubling dilutions starting from 2.5 mmol/L, 4 mmol/L, 5 mmol/L, or 10 mmol/L), DMSO as the negative control, and Amphotericin B as the positive control were used, and each 5 μL of these was added in to a well of V-form 96 well type microplate.
Finally, the maximum concentration of the compounds of the present invention solution in DMSO was 50 μmol/L, 80 μmol/L, 100 μmol/L, or 200 μmol/L by adding 245 μL of the medium or 5% RBC suspension into the well.
Two hundred fifty μL of the solution of complete hemolysis was added into another well and the microplate was incubated at 37° C. in 5% of CO2 concentration for an hour.
After the incubation, each 100 μL of supernatants in wells was collected by centrifugation of the microplate at 300×g for 5 minutes and was located on a well of flat-form 96 well type microplate. An absorbance of each supernatant was measured at wavelength of 540 nm.
Percent hemolysis was calculated by using the followed equation. The required concentration to 50% of hemolysis (IC50) was calculated based on the percent hemolysis. […] Hemolysis (%)=(CR−VM)×100÷(VL−VR) Where:
CR: Absorbance of 5% RBC suspension incubated with the compounds of the present invention solution in DMSO
VM: Absorbance of medium incubated with the compounds of the present invention solution in DMSO
VL: Absorbance of solution of complete hemolysis
VR: Absorbance of 5% RBC suspension incubated with DMSO
The “hemolysis method” in the table means any tests the upper concentration of above IC50 are 50 μmol/L, 80 μmol/L, 100 μmol/L or 200 μmol/L. The “>50”, “>80”, “>100” or “>200” in the table means above IC50 value exceeded the each upper concentration.

SMILES	IC50
C[C@@H]1[C@H](O)[C@@H](C)/C=C/C=C/C=C/C=C/C=C/C=C/C=C/[C@H](O[C@@H]2O[C@H](C)[C@@H](O)[C@H](N)[C@@H]2O)C[C@@H]2O[C@](O)(C[C@@H](O)C[C@@H](O)[C@H](O)CC[C@@H](O)C[C@@H](O)CC(=O)O[C@H]1C)C[C@H](O)[C@H]2NC(=O)NC1CC1 [I-41]	> 50 µM
C[C@@H]1[C@H](O)[C@@H](C)/C=C/C=C/C=C/C=C/C=C/C=C/C=C/[C@H](O[C@@H]2O[C@H](C)[C@@H](O)[C@H](N)[C@@H]2O)C[C@@H]2O[C@](O)(C[C@@H](O)C[C@@H](O)[C@H](O)CC[C@@H](O)C[C@@H](O)CC(=O)O[C@H]1C)C[C@H](O)[C@H]2NC(=O)N1CC(O[C@H]2OC(CO)[C@@H](O)[C@H](O)C2O)C1 (stereo partly shown) [I-303]	> 50 µM
C[C@@H]1[C@H](O)[C@@H](C)/C=C/C=C/C=C/C=C/C=C/C=C/C=C/[C@H](O[C@@H]2O[C@H](C)[C@@H](O)[C@H](N)[C@@H]2O)C[C@@H]2O[C@](O)(C[C@@H](O)C[C@@H](O)[C@H](O)CC[C@@H](O)C[C@@H](O)CC(=O)O[C@H]1C)C[C@H](O)[C@H]2c1nc(-c2ccncc2)no1 [I-392]	> 50 µM
C[C@@H]1[C@H](O)[C@@H](C)/C=C/C=C/C=C/C=C/C=C/C=C/C=C/[C@H](O[C@@H]2O[C@H](C)[C@@H](O)[C@H](N)[C@@H]2O)C[C@@H]2O[C@](O)(C[C@@H](O)C[C@@H](O)[C@H](O)CC[C@@H](O)C[C@@H](O)CC(=O)O[C@H]1C)C[C@H](O)[C@H]2c1nc(-c2ccccc2)no1 [I-391]	> 50 µM

Same assay, conditions: hemolysis method 50 (upper concentration 50 μmol/L); 5% RBC suspension, 37° C., one hour; read-out: hemolysis IC50

SMILES	IC50
CON(C)C(=O)N[C@H]1[C@@H]2C[C@@H](O[C@@H]3O[C@H](C)[C@@H](O)[C@H](N)[C@@H]3O)/C=C/C=C/C=C/C=C/C=C/C=C/C=C/[C@H](C)[C@@H](O)[C@@H](C)[C@H](C)OC(=O)C[C@H](O)C[C@H](O)CC[C@@H](O)[C@H](O)C[C@H](O)C[C@](O)(C[C@@H]1O)O2 [I-282]	> 50 µM
C[C@@H]1[C@H](O)[C@@H](C)/C=C/C=C/C=C/C=C/C=C/C=C/C=C/[C@H](O[C@@H]2O[C@H](C)[C@@H](O)[C@H](N)[C@@H]2O)C[C@@H]2O[C@](O)(C[C@@H](O)C[C@@H](O)[C@H](O)CC[C@@H](O)C[C@@H](O)CC(=O)O[C@H]1C)C[C@H](O)[C@H]2NC(=O)N(O)C[C@@H](O)C(=O)O [I-295]	> 50 µM
C[C@@H]1[C@H](O)[C@@H](C)/C=C/C=C/C=C/C=C/C=C/C=C/C=C/[C@H](O[C@@H]2O[C@H](C)[C@@H](O)[C@H](N)[C@@H]2O)C[C@@H]2O[C@](O)(C[C@@H](O)C[C@@H](O)[C@H](O)CC[C@@H](O)C[C@@H](O)CC(=O)O[C@H]1C)C[C@H](O)[C@H]2NC(=O)NCCCC(=O)O [I-38]	> 50 µM
C[C@@H]1[C@H](O)[C@@H](C)/C=C/C=C/C=C/C=C/C=C/C=C/C=C/[C@H](O[C@@H]2O[C@H](C)[C@@H](O)[C@H](N)[C@@H]2O)C[C@@H]2O[C@](O)(C[C@@H](O)C[C@@H](O)[C@H](O)CC[C@@H](O)C[C@@H](O)CC(=O)O[C@H]1C)C[C@H](O)[C@H]2NC(=O)NC(CCO)C(=O)O (stereo partly shown) [I-249]	> 50 µM
C[C@@H]1[C@H](O)[C@@H](C)/C=C/C=C/C=C/C=C/C=C/C=C/C=C/[C@H](O[C@@H]2O[C@H](C)[C@@H](O)[C@H](N)[C@@H]2O)C[C@@H]2O[C@](O)(C[C@@H](O)C[C@@H](O)[C@H](O)CC[C@@H](O)C[C@@H](O)CC(=O)O[C@H]1C)C[C@H](O)[C@H]2NC(=O)N1CCC1C(=O)O (stereo partly shown) [I-283]	> 50 µM
C[C@@H]1[C@H](O)[C@@H](C)/C=C/C=C/C=C/C=C/C=C/C=C/C=C/[C@H](O[C@@H]2O[C@H](C)[C@@H](O)[C@H](N)[C@@H]2O)C[C@@H]2O[C@](O)(C[C@@H](O)C[C@@H](O)[C@H](O)CC[C@@H](O)C[C@@H](O)CC(=O)O[C@H]1C)C[C@H](O)[C@H]2NC(=O)NCC[C@H](O)CO [I-146]	> 50 µM
CCN(O)C(=O)N[C@H]1[C@@H]2C[C@@H](O[C@@H]3O[C@H](C)[C@@H](O)[C@H](N)[C@@H]3O)/C=C/C=C/C=C/C=C/C=C/C=C/C=C/[C@H](C)[C@@H](O)[C@@H](C)[C@H](C)OC(=O)C[C@H](O)C[C@H](O)CC[C@@H](O)[C@H](O)C[C@H](O)C[C@](O)(C[C@@H]1O)O2 [I-279]	> 50 µM
C[C@@H]1[C@H](O)[C@@H](C)/C=C/C=C/C=C/C=C/C=C/C=C/C=C/[C@H](O[C@@H]2O[C@H](C)[C@@H](O)[C@H](N)[C@@H]2O)C[C@@H]2O[C@](O)(C[C@@H](O)C[C@@H](O)[C@H](O)CC[C@@H](O)C[C@@H](O)CC(=O)O[C@H]1C)C[C@H](O)[C@H]2NC(=O)NCCOCCOCCO [I-11]	> 50 µM
C[C@@H]1[C@H](O)[C@@H](C)/C=C/C=C/C=C/C=C/C=C/C=C/C=C/[C@H](O[C@@H]2O[C@H](C)[C@@H](O)[C@H](N)[C@@H]2O)C[C@@H]2O[C@](O)(C[C@@H](O)C[C@@H](O)[C@H](O)CC[C@@H](O)C[C@@H](O)CC(=O)O[C@H]1C)C[C@H](O)[C@H]2NC(=O)NOCC(CO)CO [I-255]	> 50 µM

Same assay, conditions: hemolysis method 80 (upper concentration 80 μmol/L); 5% RBC suspension, 37° C., one hour; read-out: hemolysis IC50

SMILES	IC50
C[C@@H]1[C@H](O)[C@@H](C)/C=C/C=C/C=C/C=C/C=C/C=C/C=C/[C@H](O[C@@H]2O[C@H](C)[C@@H](O)[C@H](N)[C@@H]2O)C[C@@H]2O[C@](O)(C[C@@H](O)C[C@@H](O)[C@H](O)CC[C@@H](O)C[C@@H](O)CC(=O)O[C@H]1C)C[C@H](O)[C@H]2NC(=O)N1CCC(N(C)C)C1 (single isomer, unassigned) [I-50]	> 80 µM
C[C@@H]1[C@H](O)[C@@H](C)/C=C/C=C/C=C/C=C/C=C/C=C/C=C/[C@H](O[C@@H]2O[C@H](C)[C@@H](O)[C@H](N)[C@@H]2O)C[C@@H]2O[C@](O)(C[C@@H](O)C[C@@H](O)[C@H](O)CC[C@@H](O)C[C@@H](O)CC(=O)O[C@H]1C)C[C@H](O)[C@H]2NC(=O)N1CCCCC1c1ccccc1 (stereo partly shown) [I-22]	> 80 µM
C[C@@H]1[C@H](O)[C@@H](C)/C=C/C=C/C=C/C=C/C=C/C=C/C=C/[C@H](O[C@@H]2O[C@H](C)[C@@H](O)[C@H](N)[C@@H]2O)C[C@@H]2O[C@](O)(C[C@@H](O)C[C@@H](O)[C@H](O)CC[C@@H](O)C[C@@H](O)CC(=O)O[C@H]1C)C[C@H](O)[C@H]2NC(=O)N1CCOCCOCCOCCOCCOCC1 [I-18]	> 80 µM
C[C@@H]1[C@H](O)[C@@H](C)/C=C/C=C/C=C/C=C/C=C/C=C/C=C/[C@H](O[C@@H]2O[C@H](C)[C@@H](O)[C@H](N)[C@@H]2O)C[C@@H]2O[C@](O)(C[C@@H](O)C[C@@H](O)[C@H](O)CC[C@@H](O)C[C@@H](O)CC(=O)O[C@H]1C)C[C@H](O)[C@H]2NC(=O)NCCN(C)C [I-51]	> 80 µM
C[C@@H]1[C@H](O)[C@@H](C)/C=C/C=C/C=C/C=C/C=C/C=C/C=C/[C@H](O[C@@H]2O[C@H](C)[C@@H](O)[C@H](N)[C@@H]2O)C[C@@H]2O[C@](O)(C[C@@H](O)C[C@@H](O)[C@H](O)CC[C@@H](O)C[C@@H](O)CC(=O)O[C@H]1C)C[C@H](O)[C@H]2NC(=O)N1CCC(N(C)C)CC1 [I-54]	> 80 µM

Same assay, conditions: hemolysis method 100 (upper concentration 100 μmol/L); 5% RBC suspension, 37° C., one hour; read-out: hemolysis IC50

SMILES	IC50
C[C@@H]1[C@H](O)[C@@H](C)/C=C/C=C/C=C/C=C/C=C/C=C/C=C/[C@H](O[C@@H]2O[C@H](C)[C@@H](O)[C@H](N)[C@@H]2O)C[C@@H]2O[C@](O)(C[C@@H](O)C[C@@H](O)[C@H](O)CC[C@@H](O)C[C@@H](O)CC(=O)O[C@H]1C)C[C@H](O)[C@H]2NC(=O)NC(CO)Cc1c[nH]cn1 (stereo partly shown) [I-6]	75 µM
C[C@@H]1[C@H](O)[C@@H](C)/C=C/C=C/C=C/C=C/C=C/C=C/C=C/[C@H](O[C@@H]2O[C@H](C)[C@@H](O)[C@H](N)[C@@H]2O)C[C@@H]2O[C@](O)(C[C@@H](O)C[C@@H](O)[C@H](O)CC[C@@H](O)C[C@@H](O)CC(=O)O[C@H]1C)C[C@H](O)[C@H]2NC(=O)NCCCN(C)C [I-7]	81 µM
C[C@@H]1[C@H](O)[C@@H](C)/C=C/C=C/C=C/C=C/C=C/C=C/C=C/[C@H](O[C@@H]2O[C@H](C)[C@@H](O)[C@H](N)[C@@H]2O)C[C@@H]2O[C@](O)(C[C@@H](O)C[C@@H](O)[C@H](O)CC[C@@H](O)C[C@@H](O)CC(=O)O[C@H]1C)C[C@H](O)[C@H]2NC(=O)NCCn1cncn1 [I-9]	> 100 µM
CC1C=CC=CC=CC=CC=CC=CC=CC(OC2OC(C)C(O)C(N)C2O)CC2OC(O)(CC(O)CC(O)C(O)CCC(O)CC(O)CC(=O)OC(C)C(C)C1O)CC(O)C2NC(=O)NC1CCCC1O (stereo not shown) [I-207]	> 100 µM
